Read-outs that look alike come from different tables or passages of the source.
Assays:
[1] = test system: Leishmania tarentolae promastigotes (LtP); assay: Resazurin viability assay for LtP; assay type: cell-based; conditions: for IC50: Leishmania tarentolae, read-out: LtP IC50; for Selectivity IC50,J774/IC50,LtP: ratio of IC50 in J774 macrophages to IC50 in LtP; for IC50,non-EP/IC50,EP: ratio of IC50 of non-EP in LtP versus IC50 of respective EP
Protocol: (§1) The influence of AcEP and their analogs (Ac) on the viability of cells was tested in Leishmania tarentolae promastigotes (LtP) and J774 macrophages (Table 2). Based on the changes of viability of the respective cell lines at different compound concentrations, IC50 values were calculated. In Table 2, the IC50 values in both cell lines were compared for the individual compounds. From the ratio of IC50 values in J774 macrophages to IC50 values in LtP, an in vitro selectivity was calculated.
LtP (strain P10 from Jena Bioscience, Jena, Germany) were cultivated according to manufacturer instructions up to passage 50 in brain heart infusion medium (37 g/L, pH 7.4) and supplemented with 5 mg/L hemin and 25,000 IU/L penicillin and 25 mg/L streptomycin in 50 mL TubeSpin bioreactors (TPP, Trasadingen. Switzerland). LtP were grown at 27 °C in an incubator (Ehret, Emmendingen, Germany) and agitated at a frequency of 0.05 s^−1. […] For experiments, LtP were used one day after passage. The cell number was calculated by measuring the optical density (OD) of the culture at 600 nm with a U-1100 photometer (Hitachi Ltd., Tokyo, Japan) and applying the formula × 10^6 cells/mL = OD600nm × 0.969 × 124 × dilution factor [53].
Assay medium of YEM (20.7 g/L yeast extract powder, 1.2 g/L K2HPO4, 0.2 g/L KH2PO4, 2.9 g/L glucose, pH 7.4) and PBS (1:1, v/v), 25,000 U/L penicillin, 25 mg/L streptomycin, and 7.7 µM hemin was prepared. Aliquots of 200 µL of this medium and 2 × 10^6 LtP/mL (where required) were distributed in non-treated cell culture 96-well plates. Compounds (dissolved in DMSO) were added with starting concentrations of 25 µM (Pen) or 200 µM (AcEP/Ac), and then, serial dilutions were carried out resulting in a set of concentrations (25, 5, 1, 0.2, 0.04, and 0.008 µM) or (200, 40, 8, 1.6, 0.32, and 0.064 µM). For each compound concentration, at least triplicates on each plate were performed. After incubation of the plates at 27 °C for 48 h, 50 µL of resazurin solution (final concentration in wells 20 µM) was added to each well and after 4 h of incubation, the fluorescence was measured at 560 nm excitation and 590 nm emission using a plate reader (Perkin Elmer EnSpire, Rodgau, Germany) (adapted from). Combination assays for viability in the presence of PIH and NAC were performed the same way. […] All tests were repeated at least on four different weeks of cultivation.
(§2) Calculations were carried out using Microsoft Excel 2016 (Microsoft). The graphs were created using Origin 6.1 (OriginLab Corporation, Northampton, MA, USA). For all groups of experimental data, mean and standard deviation (SD) were calculated. Statistically significant differences between groups of sample data were identified by unpaired two-tailed Student’s t-test. Differences on the level of p < 0.05 were considered significant. The number of replicates is indicated at the respective figures/tables. The half-maximal inhibitory concentrations (IC50) were determined from non-linear concentration-response curves using a four-parameter logistic model and expressed as the mean ± SD.

J774 macrophages = assay: Resazurin viability assay for J774 macrophages; assay type: cell-based, murine; conditions: Mus musculus, J774, 48 h, read-out: J774 IC50
Protocol: as §1
The murine macrophage cell line J774A.1 (ATCC, TIB-67™, Wesel, Germany) was cultivated up to passage 30 in DMEM (high glucose, 3.7 g/L NaHCO3, pH 7.4) with 25,000 IU/L penicillin, 25 mg/L streptomycin, and 10% FCS (heat-inactivated) in 50 mL TubeSpin bioreactors. J774 cells were incubated at 37 °C and 5% CO2 on a roller culture apparatus (5 rpm) in a Heraeus Cytoperm 8080 incubator (Thermo Electron Corp., Vienna, Austria). To determine the cell count, the cell suspension was re-suspended and diluted 1:2 with phosphate-buffered saline (PBS): 137 mM NaCl, 1.4 mM KH2PO4, 4.3 mM Na2HPO4, and 2.7 mM KCl, pH 7.4. After fixation of the cells by mixing the cell suspension 1:1 with a formaldehyde solution (2%, v/v), aliquots of the resulting suspension were transferred into a standard Neubauer chamber (VWR, Austria) and counted manually using a light microscope (Motic BA310, Vienna, Austria) at a magnification of 40 times. J774 cells were passaged twice a week in a ratio of 1:10.
DMEM containing 25,000 U/L penicillin, 25 mg/L streptomycin, 10% FCS, and 1 × 10^5 J774/mL was prepared. This mixture (200 µL) was distributed in cell culture-treated 96-well plates, except the control wells which contained only DMEM. The cells were incubated for 24 h at 37 °C and 5% CO2 to allow attachment. Afterwards the medium and non-adherent cells were removed by washing with PBS, and then, 200 µL DMEM was added to attached cells. Compounds dissolved in DMSO were added in starting concentrations of 25 µM (Pen) or 200 µM (AcEP/Ac), and then, serial dilutions were carried out resulting in the same concentration steps as listed for LtP. For each compound concentration triplicates on each plate were performed. […], 50 µL of resazurin solution (final concentration 20 µM) was added, and after 4 h of incubation, the fluorescence was measured at 560 nm excitation and 590 nm emission using a plate reader (Perkin Elmer EnSpire, Rodgau, Germany). All tests were repeated at least on four different weeks of cultivation.
as §2

[2] = UV detection of cycloreversion (thermal decomposition) of AcEP; assay type: physicochemical; conditions: 40 µM AcEP in EtOH at 70 °C over up to 23 h, UV spectra
Protocol: To determine EP decomposition, we recorded at first the UV spectra of the parent Ac compound and then observed the spectral changes of the corresponding EP during incubation in EtOH (Figure 7). […] Spectral changes in these compounds rather indicate other decomposition pathways.
A sample of the corresponding Ac in 1.5 mL EtOH (final concentrations 2, 8, or 10 µM) was transferred into a quartz cuvette and measured by an UV–VIS spectrometer (U3300, Hitachi, Tokyo, Japan) at 70 °C. Afterwards, an aliquot of the corresponding AcEP dissolved in EtOH (final concentration 40 µM) was pipetted into a cuvette, and its UV spectra were measured at 70 °C in a time interval of 1 h over a period of 23 h. After measurements, the re-appearance of the Ac absorption pattern was verified.

[3] = resazurin viability, endpoint 48 h, 2 × 10^6 LtP/mL, mean ± SD of 4–8 experiments
[4] = resazurin viability, endpoint 48 h, 10^5 J774 cells/mL, mean ± SD of 4–8 experiments

| IC50 [1, 3] | Selectivity IC50,J774/IC50,LtP [1] | IC50,non-EP/IC50,EP [1] | SMILES | IC50 (J774 macrophages; [4]) | Activity against LtP, in words ([1]; viability assay) | Cycloreversion to the parent Ac compound (thermal decomposition) [2] | IC50 ([1]; 48 h) | IC50 (J774 macrophages) |
| --- | --- | --- | --- | --- | --- | --- | --- | --- |
| 62 ± 34.2 µM | >3.2 |  | C[n+]1ccc(C23OOC(c4cc[n+](C)cc4)(c4ccccc42)c2ccccc23)cc1 [Compound 1062MeAcEP] | > 200 µM |  |  |  |  |
| 9.67 ± 2.15 µM | 20 | 20.3 | c1ccc(C23OOC(c4ccccc4)(c4ccccc42)c2ccccc23)cc1 [DPAcEP] | 197 ± 35 µM | rather active | clear reformation of the parent Ac compound over time |  |  |
| 40.7 ± 12.3 µM | >4.9 | 1.79 | COc1ccccc1C12OOC(c3ccccc3OC)(c3ccccc31)c1ccccc12 [oOMeAcEP] | > 200 µM |  |  |  |  |
| 1.84 ± 0.13 µM | 1.2 | 18.7 | c1ccc(C23OOC(c4ccccn4)(c4ccccc42)c2ccccc23)nc1 [oPyAcEP] | 2.24 ± 0.08 µM |  | did not undergo conversion to the parent Ac compound |  |  |
| 0.7 ± 0.31 µM | 35 | 0.77 | CC(C)(C)c1ccc2c(c1)C1(c3cccnc3)OOC2(c2cccnc2)c2ccccc21 (centres unmarked) [mPyBuAcEP] | 24.6 ± 7.3 µM |  | clear reformation of the parent Ac compound over time |  |  |

| SMILES | IC50 [1, 3] | Selectivity IC50,J774/IC50,LtP [1] | IC50,non-EP/IC50,EP [1] | IC50 (J774 macrophages; [4]) | Activity against LtP, in words ([1]; viability assay) | Cycloreversion to the parent Ac compound (thermal decomposition) [2] | IC50 ([1]; 48 h) | IC50 (J774 macrophages) |
| --- | --- | --- | --- | --- | --- | --- | --- | --- |
| CC(C)(C)c1ccc2c(-c3cccnc3)c3ccccc3c(-c3cccnc3)c2c1 [mPyBuAc] |  | 139 |  |  |  |  | 0.54 ± 0.09 µM | 74.2 ± 45.9 µM |
